Earlier results on two compounds are cited in patent US12178851B2, “Methods for administering STING agonists” (GlaxoSmithKline Intellectual Property Development Limited, priority 2017, dated 2024).

Structures are written as SMILES.

Data set [1] concerns CT26 syngeneic model. To be noted: 20 daily i.v. doses of 20 mg/kg, dosed 4 h after injection of the tumor cells.
Data set [2] deals with CT26 syngeneic model.

For `Nc1nc2c(ncn2[C@@H]2O[C@@H]3COP(=O)(O)O[C@H]4[C@@H](O)[C@H](n5cnc6c(N)ncnc65)O[C@@H]4COP(=O)(O)O[C@@H]2[C@@H]3O)c(=O)[nH]1` [2′3′-cGAMP], the “efficacy in CT26 model” value with CT26 syngeneic model [1] is “some efficacy”.

Consider `Cc1ccc2c(=O)c3cccc(CC(=O)O)c3oc2c1C` [DMXAA, 5,6-Dimethylxanthenone-4-Acetic Acid], for which the “maximally tolerated i.p. dose” value in the data set with CT26 syngeneic model [2] (mouse, in vivo, ip) is approximately 99 µmol/kg. The “cytokine levels in tumor and blood” value in the data set with CT26 syngeneic model [2] (once at 500 ug/mouse i.p.) is “high cytokine levels both in the tumor and the blood”. Further, in the data set on CT26 syngeneic model [2] (once at 500 ug/mouse i.p., established tumors), the tumor growth inhibition result is “potently inhibits tumor growth, leading to cures in mice”.
